Data from US8088753B2, “Heparin conjugates and methods” (Mediplex Corporation, Korea, priority 2007, dated 2012).

Tested on: SCC cells
Assay type: in vivo, C3H/HeN mice
Details: 5 mg/kg intraperitoneal twice weekly; Example 7, FIG. 8

## bevacizumab: FDA-approved anti-angiogenic monoclonal antibody that binds the receptor binding domain of VEGF
  tumor growth inhibition compared with the control: about 74%
